Reference: US20250163072A1, “MACROCYCLIC COMPOUNDS FOR THE TREATMENT OF CANCER” (Hoffmann-La Roche Inc., priority 2021, published 2025)
pIC50: −log10 of the molar value.

How the values were obtained:
[1] = tested on: KRAS G12C in NCI-H358 cells; experiment: pERK inhibition assay, NCI-H358; assay type: cell-based, human; details: Homo sapiens, 4 hours incubation
Method: (§1) This assay is to measure the ability of test compounds in inhibiting the phosphorylation of ERK, the downstream signaling of KRAS G12C in NCI-H358 cells, KRAS G12D in AGS cells, and KRAS G12V in SW620. NCI-H358 (ATCC-CRL5807) cells, AGS (ATCC-CRL-1739) cells, SW620 (ATCC-CCL-227) cells were all grown and maintained using RPMI-1640 medium (Thermo Fisher Scientific) with 10% fetal bovine serum and 1% penicillin/streptomycin. On the day prior to compound addition, cells were plated in tissue culture-treated 96 well plates (Corning-3699) at a density of 30,000 cell/well, 20,000 cell/well, 30,000 cell/well for NCI-H358, AGS and SW620 respectively, and allowed for attachment overnight. Diluted compounds were then added in a final concentration of 0.5% DMSO. After 4 hours of incubation, the medium was removed, 100 μL of 4% formaldehyde was added, and the assay plates were incubated at room temperature for 20 minutes. The plates were then washed once with phosphate buffered saline (PBS), and permeabilized with 100 μL of chilled methanol for 10 minutes. Non-specific antibody binding to the plates was blocked using 50 μL 1×BSA blocking buffer (Thermo-37520, 10-fold dilution by Phosphate-Buffered Saline Tween (PBST) for at least 1 hour at room temperature. The amount of phosphor-ERK was determined using an antibody specific for phosphorylated form of ERK. Primary antibody (pERK, CST-4370, Cell Signaling Technology) was diluted 1:300 in blocking buffer, with 50 μL aliquoted to each well, and incubated overnight at 4° C. Cells were washed five times for 5 minutes with PBST. Secondary antibody (HRP-linked anti-rabbit IgG, CST-7074, Cell Signaling Technology) was diluted 1:1000 in blocking buffer, and 50 μL was added to each well and incubated 1-2 hours at room temperature. Cells were washed 5 times for 5 minutes with PBST, 100 μL TMB ELISA substrate (abcam-ab171523) were added and gently shake for 20 minutes. 50 μL stop solution (abcam-ab171529) were added, and then read the signal (OD450) by EnVision. IC50 was determined by fitting a 4-parameter sigmoidal concentration response model.

KRAS G12V in SW620 = experiment: pERK inhibition assay, SW620; assay type: cell-based, human; details: Homo sapiens, SW-620, SW620 cells, 4 hours incubation
Method: as §1

KRAS G12C-BRAF complex = KRAS G12C-BRAF complex (Homo sapiens (Human), UniProt P01116+P62937, G12C); experiment: KRAS-BRAF with CYPA (50 nM) interaction assay (TR-FRET), G12C; assay type: binding; details: GMPPNP loaded 6His-KRAS, GST-BRAF RBD
KRAS G12C-BRAF complex, sequence (P01116-2 other isoform, or with tags, fused parts or gaps G12C): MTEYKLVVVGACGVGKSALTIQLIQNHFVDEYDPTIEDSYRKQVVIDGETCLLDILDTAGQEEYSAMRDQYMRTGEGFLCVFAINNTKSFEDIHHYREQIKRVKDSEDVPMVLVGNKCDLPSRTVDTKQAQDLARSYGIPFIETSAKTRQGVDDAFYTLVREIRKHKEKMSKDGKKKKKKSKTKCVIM
KRAS G12C-BRAF complex, sequence (P62937 whole entry): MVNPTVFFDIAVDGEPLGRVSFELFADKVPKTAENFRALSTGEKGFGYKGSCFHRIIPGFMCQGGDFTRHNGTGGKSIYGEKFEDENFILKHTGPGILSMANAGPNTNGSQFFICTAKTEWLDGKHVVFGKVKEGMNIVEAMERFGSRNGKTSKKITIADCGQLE
Method: (§2) In this example, TR-FRET was also used to measure the compound or compound-CYPA dependent disruption of the KRAS G12C-BRAF complex. This protocol was also used to measure disruption of KRAS G12D or KRAS G12V binding to BRAF by a compound of the invention, respectively. In assay buffer containing 25 mM HEPES PH=7.4 (4-(2-hydroxyethyl)-1-piperazineethanesulfonic acid, Thermo, 15630080), 0.002% Tween20, 0.1% BSA, 100 mM NaCl, 5 mM MgCl2, 10 μM GMPPNP (Guanosine 5'-[β,γ-imido]triphosphate trisodium salt hydrate, Sigma, G0635), tagless CYPA, GMPPNP loaded 6His-KRAS proteins, and GST-BRAF^RBD were mixed in a well of a 384-well assay plate at final concentrations of 50 nM, 6.25 nM and 1 nM, respectively. Compound was present in plate wells as a 16-point 3-fold dilution series starting at a final concentration of 10 μM and incubated for 3 hours. A mixture of MAb Anti-6His-XL665 (Cisbio, 61HISXLB) and Mab anti-GST-TB cryptate (Cisbio, 61GSTTLB) was then added at a final concentration of 6.67 nM and 0.21 nM, respectively, and the plate was incubated for an additional 1.5 hours. TR-FRET signal was read on a […] microplate reader (Ex320 nm, Em 665/615 nm). Compounds that facilitate disruption of the KRAS-BRAF complex were identified as those eliciting a decrease in the TR-FRET ratio relative to DMSO control wells.

[2] = target: KRAS G12D binding to BRAF (Homo sapiens (Human), UniProt P01116+P62937, G12D); experiment: KRAS-BRAF with CYPA (50 nM) interaction assay (TR-FRET), G12D; details: GMPPNP loaded 6His-KRAS, GST-BRAF RBD
KRAS G12D binding to BRAF, sequence (P01116-2 other isoform, or with tags, fused parts or gaps G12D): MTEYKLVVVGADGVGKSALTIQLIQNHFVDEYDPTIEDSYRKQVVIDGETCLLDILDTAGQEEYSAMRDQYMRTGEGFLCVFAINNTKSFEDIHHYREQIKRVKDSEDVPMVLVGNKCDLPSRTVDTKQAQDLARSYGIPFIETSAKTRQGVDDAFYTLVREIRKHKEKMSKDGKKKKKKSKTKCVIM
KRAS G12D binding to BRAF, sequence (P62937 whole entry): as the sequence (P62937 whole entry) above
Method: as §2

[3] = target: KRAS G12V binding to BRAF (Homo sapiens (Human), UniProt P01116+P62937, G12V); experiment: KRAS-BRAF with CYPA (50 nM) interaction assay (TR-FRET), G12V; details: GMPPNP loaded 6His-KRAS, GST-BRAF RBD
KRAS G12V binding to BRAF, sequence (P01116-2 other isoform, or with tags, fused parts or gaps G12V): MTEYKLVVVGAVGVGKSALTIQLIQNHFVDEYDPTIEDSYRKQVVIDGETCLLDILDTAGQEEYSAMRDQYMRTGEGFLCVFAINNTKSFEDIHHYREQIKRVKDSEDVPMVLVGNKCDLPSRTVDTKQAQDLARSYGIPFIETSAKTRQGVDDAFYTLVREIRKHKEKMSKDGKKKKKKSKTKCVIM
KRAS G12V binding to BRAF, sequence (P62937 whole entry): as the sequence (P62937 whole entry) above
Method: as §2

NCI-H358 cells = experiment: Cell viability assay, NCI-H358; assay type: cell-based, human; details: Homo sapiens, NCI-H358, 72 hours, Cell Counting Kit-8, read-out: G12C IC50
Method: (§3) The purpose of this cellular assay was to determine the effects of test compounds on the proliferation of human cancer cell lines NCI-H358 (ATCC-CRL5807) cells, AGS (ATCC-CRL-1739) cells, SW620 (ATCC-CCL-227) over a 3-day treatment period by quantifying the amount of NADPH present at endpoint using Cell Counting Kit-8. Cells were seeded at 5,000 cells/well (NCI-H358), 2,000 cells/well (AGS) 2,000 cells/well (SW620) in 96-well assay plates (Corning-3699) and incubated overnight. On the day of the assay, diluted compounds were then added in a final concentration of 0.5% DMSO. After 72 hours incubation, a tenth of the volume of cell counting kit 8(Dnjindo-CK04) was added into each well. Read the signal (OD450 minus OD650) using EnVision after 2 hours incubation. IC50 was determined by fitting a 4-parameter sigmoidal concentration response model.

SW620 cells = experiment: Cell viability assay, SW620; assay type: cell-based, human; details: Homo sapiens, SW-620, SW620, 72 hours, Cell Counting Kit-8, read-out: G12V IC50
Method: as §3

KRAS G12D in AGS cells = experiment: pERK inhibition assay, AGS; assay type: cell-based, human; details: Homo sapiens, 4 hours incubation
Method: as §1

AGS cells = experiment: Cell viability assay, AGS; assay type: cell-based, human; details: Homo sapiens, 72 hours, Cell Counting Kit-8, read-out: G12D IC50
Method: as §3

Structure (SMILES)	pIC50 [1]	pIC50 (KRAS G12V in SW620)	pIC50 (KRAS G12C-BRAF complex)	pIC50 [2]	pIC50 [3]	pIC50 (NCI-H358 cells)	pIC50 (SW620 cells)	pIC50 (KRAS G12D in AGS cells)	pIC50 (AGS cells)
CCn1c(-c2cccnc2[C@H](C)OC)c2c3cc(ccc31)-c1cc(O)cc(c1)C[C@H](NC(=O)[C@H](C(C)C)N(C)C(=O)[C@H]1CCN(C(=O)/C=C/n3cncn3)C1)C(=O)N1CCC[C@H](N1)C(=O)OCC(C)(C)C2 (atropisomer, axis not shown; (M)) [Example 9, (3S)-N-[(1S)-1-[[(8S,14S)-22-ethyl-4-hydroxy-(21M)-21-[2-[(1S)-1-methoxyethyl]-3-pyridyl]-18,18-dimethyl-9,15-dioxo-16-oxa-10,22,28-triazapentacyclo[18.5.2.12,6.110,14.023,27]nonacosa-1(26),2,4,6(29),20,23(27),24-heptaen-8-yl]carbamoyl]-2-methyl-propyl]-N-methyl-1-[(E)-3-(1,2,4-triazol-1-yl)prop-2-enoyl]pyrrolidine-3-carboxamide]	6.64	6.13	7.42	5.71	6.99	7.54	6.07		
CCn1c(-c2cccnc2[C@H](C)OC)c2c3cc(ccc31)-c1cc(O)cc(c1)C[C@H](NC(=O)[C@H](C(C)C)N(C)C(=O)C1CC(C=O)C1)C(=O)N1CCC[C@H](N1)C(=O)OCC(C)(C)C2 (stereo partly drawn) [Example 3, N-[(1S)-1-[[(8S,14S)-22-ethyl-4-hydroxy-(21M)-21-[2-[(1S)-1-methoxyethyl]-3-pyridyl]-18,18-dimethyl-9,15-dioxo-16-oxa-10,22,28-triazapentacyclo[18.5.2.12,6.110,14.023,27]nonacosa-1(26),2,4,6(29),20,23(27),24-heptaen-8-yl]carbamoyl]-2-methyl-propyl]-3-formyl-N-methyl-cyclobutanecarboxamide]	8.05	6.61	9.00	5.99	6.96	7.39	6.16	6.17	5.89
CCn1c(-c2cc(N3CCN(CC(F)(F)F)CC3)cnc2[C@H](C)OC)c2c3cc(ccc31)-c1csc(n1)C[C@H](NC(=O)[C@H](C(C)C)N(C)C(=O)[C@H]1CCN(C(=O)[C@H](F)Cl)C1)C(=O)N1CCC[C@H](N1)C(=O)OCC(C)(C)C2 (atropisomer, axis not shown; (M)) [Example 26, (3S)-1-[(2R)-2-chloro-2-fluoro-acetyl]-N-[(1S)-1-[[(7S,13S)-21-ethyl-(20M)-20-[2-[(1S)-1-methoxyethyl]-5-[4-(2,2,2-trifluoroethyl)piperazin-1-yl]-3-pyridyl]-17,17-dimethyl-8,14-dioxo-15-oxa-4-thia-9,21,27,28-tetrazapentacyclo[17.5.2.12,5.19,13.022,26]octacosa-1(25),2,5(28),19,22(26),23-hexaen-7-yl]carbamoyl]-2-methyl-propyl]-N-methyl-pyrrolidine-3-carboxamide]	9.00	7.89	7.44	5.57	6.70	> 9.22	7.35	7.46	6.85
CO[C@@H](C)c1ncc(N2CCN(C)CC2)cc1-c1c2c3cc(ccc3n1CC(F)(F)F)-c1csc(n1)C[C@H](NC(=O)[C@H](C(C)C)N(C)C(=O)C1(F)CCN(C(=O)[C@H](F)Cl)CC1)C(=O)N1CCC[C@H](N1)C(=O)OCC(C)(C)C2 (atropisomer, axis not shown; (M)) [Example 20, 1-[(2R)-2-chloro-2-fluoro-acetyl]-4-fluoro-N-[(1S)-1-[[(7S,13S)-(20M)-20-[2-[(1S)-1-methoxyethyl]-5-(4-methylpiperazin-1-yl)-3-pyridyl]-17,17-dimethyl-8,14-dioxo-21-(2,2,2-trifluoroethyl)-15-oxa-4-thia-9,21,27,28-tetrazapentacyclo[17.5.2.12,5.19,13.022,26]octacosa-1(25),2,5(28),19,22(26),23-hexaen-7-yl]carbamoyl]-2-methyl-propyl]-N-methyl-piperidine-4-carboxamide]	9.00	8.52	7.96	6.38	5.93	9.70	8.30	7.96	7.74
